Reference: ChEMBL document CHEMBL1201862, “PubChem BioAssay data set” (2004)
Activity calls are given as the source filed them.

Legend:
[1] = biological target: T1, Microphthalmia-associated transcription factor (Homo sapiens, UniProt O75030); assay: TRPM1 promoter luciferase signal decrease, dose response, MITF inhibitor project, cell-based, SK-MEL-5, cherry-picked, set 3 (AID 493073); format: functional
T1 sequence (O75030 whole entry): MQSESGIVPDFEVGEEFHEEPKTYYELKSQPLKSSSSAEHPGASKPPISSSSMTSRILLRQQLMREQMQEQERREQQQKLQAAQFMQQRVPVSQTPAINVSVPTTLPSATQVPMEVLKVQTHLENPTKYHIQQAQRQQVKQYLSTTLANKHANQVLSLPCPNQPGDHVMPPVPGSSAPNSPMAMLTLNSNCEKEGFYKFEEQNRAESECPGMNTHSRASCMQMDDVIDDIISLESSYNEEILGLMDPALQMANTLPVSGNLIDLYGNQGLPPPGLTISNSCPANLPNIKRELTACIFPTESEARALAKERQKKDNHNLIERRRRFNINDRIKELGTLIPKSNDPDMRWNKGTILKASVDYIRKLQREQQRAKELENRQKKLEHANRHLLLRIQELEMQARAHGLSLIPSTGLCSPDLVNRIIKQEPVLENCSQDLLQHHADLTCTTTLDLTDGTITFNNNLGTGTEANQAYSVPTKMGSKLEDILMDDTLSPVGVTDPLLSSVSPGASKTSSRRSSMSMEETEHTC

Cytochrome P450 2C19 = Cytochrome P450 2C19 (Homo sapiens, UniProt P33261); assay: Cytochrome panel assay with activity outcomes. Panel member name: p450-cyp2c19 Compounds with AC50 equal or less than 10 uM are considered active; format: functional; details: read-out: AC50
Cytochrome P450 2D6 = Cytochrome P450 2D6 (Homo sapiens, UniProt P10635);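 further: CYP2D6 member of a cytochrome P450 panel assay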
Leucine aminopeptidase = biological target: T2, Leucine aminopeptidase (Plasmodium falciparum 3D7, UniProt Q8IL11); assay: P. falciparum M17LAP inhibitors, primary screen, biochemical, fluorogenic H-Leu-NHMec substrate, 1536-well (AID 1619); format: functional
T2 sequence (Q8IL11 whole entry): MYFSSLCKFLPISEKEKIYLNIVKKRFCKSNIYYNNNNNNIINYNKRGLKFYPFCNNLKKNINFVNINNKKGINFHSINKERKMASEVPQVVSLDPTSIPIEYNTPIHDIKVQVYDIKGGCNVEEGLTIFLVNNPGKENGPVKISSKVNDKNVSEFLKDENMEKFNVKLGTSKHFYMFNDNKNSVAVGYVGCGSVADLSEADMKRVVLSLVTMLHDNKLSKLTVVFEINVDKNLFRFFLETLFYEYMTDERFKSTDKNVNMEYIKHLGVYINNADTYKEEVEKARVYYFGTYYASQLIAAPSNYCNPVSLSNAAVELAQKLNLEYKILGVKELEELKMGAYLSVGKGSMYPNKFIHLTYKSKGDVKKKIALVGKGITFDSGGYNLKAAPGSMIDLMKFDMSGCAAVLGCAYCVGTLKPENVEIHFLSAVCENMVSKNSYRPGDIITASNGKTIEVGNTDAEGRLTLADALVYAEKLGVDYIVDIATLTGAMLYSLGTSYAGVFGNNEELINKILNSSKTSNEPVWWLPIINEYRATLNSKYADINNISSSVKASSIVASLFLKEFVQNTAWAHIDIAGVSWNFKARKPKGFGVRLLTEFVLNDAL

Aminopeptidase N = biological target: T3, Aminopeptidase N (Plasmodium falciparum FcB1/Columbia, UniProt O96935); assay: P. falciparum M1AAP inhibitors, biochemical, fluorogenic H-Leu-NHMec substrate, 1536-well (AID 1445); set-up: species or system Plasmodium falciparum 3D7, 3D7
T3 sequence (O96935 whole entry): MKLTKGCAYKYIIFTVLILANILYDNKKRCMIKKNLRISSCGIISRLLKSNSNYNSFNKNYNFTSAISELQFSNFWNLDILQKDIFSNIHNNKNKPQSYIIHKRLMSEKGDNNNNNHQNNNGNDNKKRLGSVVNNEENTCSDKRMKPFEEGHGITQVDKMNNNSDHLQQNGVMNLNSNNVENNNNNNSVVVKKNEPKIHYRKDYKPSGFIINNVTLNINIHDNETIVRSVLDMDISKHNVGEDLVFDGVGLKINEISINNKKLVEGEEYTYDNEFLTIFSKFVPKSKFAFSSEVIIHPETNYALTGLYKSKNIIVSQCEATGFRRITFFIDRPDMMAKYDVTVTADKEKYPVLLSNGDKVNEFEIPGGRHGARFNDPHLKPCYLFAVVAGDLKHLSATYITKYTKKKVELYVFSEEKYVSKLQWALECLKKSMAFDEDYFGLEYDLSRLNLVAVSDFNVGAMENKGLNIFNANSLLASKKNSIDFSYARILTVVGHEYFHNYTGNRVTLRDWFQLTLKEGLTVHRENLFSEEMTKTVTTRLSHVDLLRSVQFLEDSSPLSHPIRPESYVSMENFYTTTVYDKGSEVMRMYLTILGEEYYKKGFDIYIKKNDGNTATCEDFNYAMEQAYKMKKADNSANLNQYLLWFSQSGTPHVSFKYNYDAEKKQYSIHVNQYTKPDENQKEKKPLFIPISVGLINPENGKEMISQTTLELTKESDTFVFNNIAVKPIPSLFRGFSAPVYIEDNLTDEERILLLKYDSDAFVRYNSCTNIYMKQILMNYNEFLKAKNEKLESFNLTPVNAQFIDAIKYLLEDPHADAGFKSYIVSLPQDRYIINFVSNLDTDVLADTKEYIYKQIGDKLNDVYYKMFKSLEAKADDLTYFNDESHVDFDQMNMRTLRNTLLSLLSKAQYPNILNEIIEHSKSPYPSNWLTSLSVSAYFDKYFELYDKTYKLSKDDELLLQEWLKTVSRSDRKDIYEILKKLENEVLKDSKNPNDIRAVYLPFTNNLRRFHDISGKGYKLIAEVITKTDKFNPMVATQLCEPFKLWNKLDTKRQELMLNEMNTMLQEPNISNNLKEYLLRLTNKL

[2] = biological target: T4, RNA-binding protein pos-1 (Caenorhabditis elegans, UniProt G5EF15); assay: inhibitors of POS-1/mex-3 RNA binding, dose response, biochemical, fluorescence polarization (AID 1964);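 further: purified POS-1 fused to maltose binding protein made in E. coli; potency of compounds blocking POS-1 binding to fluorescent RNA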
T4 sequence (G5EF15 whole entry): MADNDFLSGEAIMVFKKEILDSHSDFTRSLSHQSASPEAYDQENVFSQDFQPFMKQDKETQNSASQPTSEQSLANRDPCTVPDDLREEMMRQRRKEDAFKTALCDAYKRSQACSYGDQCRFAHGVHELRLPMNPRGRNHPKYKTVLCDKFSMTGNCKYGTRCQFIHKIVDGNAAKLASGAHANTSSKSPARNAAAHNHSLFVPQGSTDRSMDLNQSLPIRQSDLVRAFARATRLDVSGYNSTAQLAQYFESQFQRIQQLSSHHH

[3] = tested on: Streptococcus sp. 'group A'; assay: growth inhibition of control SK(-) GAS strain, dose response, counter-screen for streptokinase expression inhibitor project, luminescence, kanamycin, BacTiterGlo, confirmation (AID 1900); format: functional, organism-based
SUMO-activating enzyme [4] = biological target: T5, SUMO-activating enzyme (Homo sapiens, UniProt Q9UBT2); assay: SUMOylation inhibitor hit validation, confirmation, SUMOylation inhibitor project, biochemical, AlphaScreen (AID 2018); format: functional
[5] = biological target: T6, Zinc finger protein mex-5 (Caenorhabditis elegans, UniProt Q9XUB2); assay: MEX-5/TCR-2 RNA interaction inhibitors, dose response, biochemical, C. elegans, fluorescence polarization (AID 1960)
T6 sequence (Q9XUB2 whole entry): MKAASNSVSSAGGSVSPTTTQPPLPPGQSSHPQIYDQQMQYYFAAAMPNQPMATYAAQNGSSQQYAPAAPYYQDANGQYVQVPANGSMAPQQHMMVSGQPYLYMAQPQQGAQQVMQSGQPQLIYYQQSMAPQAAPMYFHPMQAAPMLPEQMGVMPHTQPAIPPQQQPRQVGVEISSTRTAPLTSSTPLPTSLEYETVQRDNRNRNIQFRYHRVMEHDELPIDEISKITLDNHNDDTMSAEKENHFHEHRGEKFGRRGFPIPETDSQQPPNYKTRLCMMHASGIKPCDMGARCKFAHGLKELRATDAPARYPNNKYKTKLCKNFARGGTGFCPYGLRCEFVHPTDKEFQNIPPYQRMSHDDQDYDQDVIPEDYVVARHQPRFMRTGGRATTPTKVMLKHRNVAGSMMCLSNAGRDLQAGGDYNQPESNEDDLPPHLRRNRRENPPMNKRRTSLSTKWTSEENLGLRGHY

SUMO-activating enzyme [6] = biological target: T5, SUMO-activating enzyme; assay: inhibitors of in vitro SUMOylation cascade, primary screen, biochemical, HTRF, uHTS (AID 2006); format: protein-complex assay
Streptococcus = assay: Group A Streptococcus viability loss, dose response, counter-screen for streptokinase expression inhibitor project, luminescence, BacTiterGlo (AID 1915); format: functional, organism-based;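 further: potency for reduction of bacterial viability or growth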
Nonstructural protein 1 = Nonstructural protein 1 (Influenza A virus, UniProt Q194T2); format: functional, Influenza A virus (A/California/07/2009(H1N1))
Albumin = Albumin (Bos taurus, UniProt P02769); assay: Counterscreen for inhibitors of T-cell receptor (TCR)-CD3 interaction: Fluorescence-based biochemical high throughput dose response assay to identify inhibitors of T-cell receptor (TCR)-CD3 interaction using a TAMRA-labeled BSA probe.; format: functional
Bcl-2-related protein A1 = biological target: T7, Bcl-2-related protein A1 (Mus musculus, UniProt Q07440); format: functional;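 further: confirmatory dose–response counterscreen on Bfl-1, used to check hits from a UBC13 polyubiquitin inhibitor campaign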
T7 sequence (Q07440 whole entry): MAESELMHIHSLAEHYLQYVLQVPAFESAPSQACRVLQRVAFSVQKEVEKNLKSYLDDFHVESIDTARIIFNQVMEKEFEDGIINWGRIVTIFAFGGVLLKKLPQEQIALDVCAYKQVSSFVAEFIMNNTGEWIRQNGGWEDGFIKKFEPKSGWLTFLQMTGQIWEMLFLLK

[7] = biological target: T8, Ubiquitin-conjugating enzyme E2 N (Homo sapiens, UniProt P61088); format: functional
T8 sequence (P61088 whole entry): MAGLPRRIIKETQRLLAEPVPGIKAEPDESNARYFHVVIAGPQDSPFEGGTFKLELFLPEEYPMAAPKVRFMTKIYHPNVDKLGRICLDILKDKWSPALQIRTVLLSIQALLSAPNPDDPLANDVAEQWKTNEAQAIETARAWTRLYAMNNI

[8] = biological target: T8, Ubiquitin-conjugating enzyme E2 N; format: functional; remark: listed apart in the source
Cytochrome P450 1A2 = biological target: T9, Cytochrome P450 1A2 (Homo sapiens, UniProt P05177);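 further: PubChem cytochrome P450 panel assay, CYP1A2 panel member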
T9 sequence (P05177 whole entry): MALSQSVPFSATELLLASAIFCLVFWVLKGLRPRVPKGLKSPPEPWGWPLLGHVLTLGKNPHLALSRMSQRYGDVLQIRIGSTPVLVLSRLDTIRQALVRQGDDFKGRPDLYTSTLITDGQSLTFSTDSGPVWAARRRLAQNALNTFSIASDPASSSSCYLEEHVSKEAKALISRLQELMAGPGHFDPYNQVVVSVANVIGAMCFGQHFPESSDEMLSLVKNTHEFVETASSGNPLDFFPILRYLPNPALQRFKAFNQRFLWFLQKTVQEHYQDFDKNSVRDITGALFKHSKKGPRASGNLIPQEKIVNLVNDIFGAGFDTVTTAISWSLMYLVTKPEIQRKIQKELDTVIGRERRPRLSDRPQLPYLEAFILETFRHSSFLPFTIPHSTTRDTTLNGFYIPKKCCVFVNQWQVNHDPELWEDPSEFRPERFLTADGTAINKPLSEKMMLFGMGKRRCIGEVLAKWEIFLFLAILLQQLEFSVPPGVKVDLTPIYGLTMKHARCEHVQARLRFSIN

T5 sequence (Q9UBE0 whole entry): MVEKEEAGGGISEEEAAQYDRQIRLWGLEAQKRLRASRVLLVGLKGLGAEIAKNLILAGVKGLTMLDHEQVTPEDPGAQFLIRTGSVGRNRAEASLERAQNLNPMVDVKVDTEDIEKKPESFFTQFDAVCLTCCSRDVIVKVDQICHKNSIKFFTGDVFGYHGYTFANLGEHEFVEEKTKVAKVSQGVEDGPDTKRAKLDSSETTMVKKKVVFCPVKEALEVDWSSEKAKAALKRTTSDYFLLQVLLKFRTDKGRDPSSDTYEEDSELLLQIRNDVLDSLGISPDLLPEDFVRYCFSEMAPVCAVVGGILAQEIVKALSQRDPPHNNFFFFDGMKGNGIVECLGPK
T5 sequence (Q9UBT2 whole entry): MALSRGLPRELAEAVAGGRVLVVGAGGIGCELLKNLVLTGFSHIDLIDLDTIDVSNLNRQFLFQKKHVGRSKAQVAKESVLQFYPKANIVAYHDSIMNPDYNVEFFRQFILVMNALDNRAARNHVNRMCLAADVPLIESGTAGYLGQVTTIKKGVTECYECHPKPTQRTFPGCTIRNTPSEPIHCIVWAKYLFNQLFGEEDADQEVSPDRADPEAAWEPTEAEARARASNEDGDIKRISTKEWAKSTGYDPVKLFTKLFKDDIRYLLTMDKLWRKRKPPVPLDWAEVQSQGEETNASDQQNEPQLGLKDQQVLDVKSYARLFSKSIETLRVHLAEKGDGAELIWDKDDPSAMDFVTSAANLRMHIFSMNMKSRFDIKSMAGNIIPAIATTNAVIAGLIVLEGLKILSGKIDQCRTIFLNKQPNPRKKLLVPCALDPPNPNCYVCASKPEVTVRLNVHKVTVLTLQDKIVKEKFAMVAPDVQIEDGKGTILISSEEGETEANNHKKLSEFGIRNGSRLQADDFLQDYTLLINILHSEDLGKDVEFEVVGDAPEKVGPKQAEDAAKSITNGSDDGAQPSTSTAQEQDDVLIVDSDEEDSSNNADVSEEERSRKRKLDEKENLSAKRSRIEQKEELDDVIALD
Chain of Cytochrome P450 2D6 (P10635 whole entry): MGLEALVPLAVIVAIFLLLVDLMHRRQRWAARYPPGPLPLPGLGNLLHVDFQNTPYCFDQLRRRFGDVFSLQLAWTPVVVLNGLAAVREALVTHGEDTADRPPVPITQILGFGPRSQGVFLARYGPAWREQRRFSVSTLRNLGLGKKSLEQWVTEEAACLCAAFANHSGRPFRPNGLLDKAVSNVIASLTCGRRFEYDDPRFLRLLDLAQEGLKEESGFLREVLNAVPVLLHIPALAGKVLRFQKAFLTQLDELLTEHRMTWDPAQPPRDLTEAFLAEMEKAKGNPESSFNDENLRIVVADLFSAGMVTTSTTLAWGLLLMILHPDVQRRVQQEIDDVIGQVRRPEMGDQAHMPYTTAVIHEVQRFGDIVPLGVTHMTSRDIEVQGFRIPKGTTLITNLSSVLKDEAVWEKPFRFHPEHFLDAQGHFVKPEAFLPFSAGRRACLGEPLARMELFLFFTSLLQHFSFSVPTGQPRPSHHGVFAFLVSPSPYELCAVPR
Chain of Cytochrome P450 2C19 (P33261 whole entry): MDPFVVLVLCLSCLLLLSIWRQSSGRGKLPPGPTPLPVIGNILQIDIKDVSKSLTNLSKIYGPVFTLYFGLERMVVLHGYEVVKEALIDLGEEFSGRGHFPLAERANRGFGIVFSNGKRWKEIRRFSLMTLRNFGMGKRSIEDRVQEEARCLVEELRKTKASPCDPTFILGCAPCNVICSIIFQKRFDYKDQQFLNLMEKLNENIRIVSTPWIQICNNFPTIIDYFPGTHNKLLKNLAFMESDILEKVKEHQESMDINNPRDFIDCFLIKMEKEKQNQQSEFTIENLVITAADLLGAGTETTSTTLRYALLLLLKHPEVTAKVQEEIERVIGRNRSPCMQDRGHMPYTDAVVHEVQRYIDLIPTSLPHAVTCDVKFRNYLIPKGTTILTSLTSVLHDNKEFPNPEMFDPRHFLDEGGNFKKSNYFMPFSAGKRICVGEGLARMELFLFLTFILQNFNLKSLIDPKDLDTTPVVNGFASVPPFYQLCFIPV
Chain of Nonstructural protein 1 (Q194T2 whole entry): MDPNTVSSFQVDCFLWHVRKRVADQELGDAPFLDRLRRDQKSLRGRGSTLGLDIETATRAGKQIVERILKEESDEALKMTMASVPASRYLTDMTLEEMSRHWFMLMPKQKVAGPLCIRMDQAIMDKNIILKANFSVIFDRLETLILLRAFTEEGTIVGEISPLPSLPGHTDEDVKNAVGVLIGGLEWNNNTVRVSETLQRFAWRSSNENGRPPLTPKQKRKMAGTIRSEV
Chain of Albumin (P02769 whole entry): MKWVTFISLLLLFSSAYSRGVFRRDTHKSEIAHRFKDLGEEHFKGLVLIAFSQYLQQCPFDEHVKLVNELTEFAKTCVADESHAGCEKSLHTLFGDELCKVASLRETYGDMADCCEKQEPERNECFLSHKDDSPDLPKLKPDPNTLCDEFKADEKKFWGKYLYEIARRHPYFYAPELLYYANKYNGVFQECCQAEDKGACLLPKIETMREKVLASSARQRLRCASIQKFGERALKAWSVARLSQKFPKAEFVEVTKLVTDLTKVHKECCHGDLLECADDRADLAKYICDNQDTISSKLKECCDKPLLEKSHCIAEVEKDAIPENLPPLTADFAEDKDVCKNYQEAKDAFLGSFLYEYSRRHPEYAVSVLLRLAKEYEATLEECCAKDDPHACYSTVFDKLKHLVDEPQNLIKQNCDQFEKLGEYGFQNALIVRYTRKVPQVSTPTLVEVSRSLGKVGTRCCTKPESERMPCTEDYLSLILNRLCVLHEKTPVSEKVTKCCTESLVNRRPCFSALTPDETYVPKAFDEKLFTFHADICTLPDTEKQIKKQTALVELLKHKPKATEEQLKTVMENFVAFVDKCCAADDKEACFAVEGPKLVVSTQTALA

[2H]C(CCOS(N)(=O)=O)c1ccc(C(C)(C)C)cc1 (stereo not drawn)
AC50 [1]: 0.487 µM (active)

CCOc1ccc(N(CC(=O)NCc2ccc(OC)cc2)S(=O)(=O)c2c(C)noc2C)cc1
AC50 (Cytochrome P450 2C19): 0.282 µM (inconclusive) | AC50 (Cytochrome P450 2D6): inconclusive

O=C1NC(=O)N(Cc2ccco2)C(=O)/C1=C/NNC(=O)c1ccccc1O
IC50 (Leucine aminopeptidase): 50.3 µM (active) | IC50 (Aminopeptidase N): 26.2 µM (active) | EC50 [2]: 15.5 µM (active) | EC50 [3]: 3 µM (active) | IC50 (SUMO-activating enzyme [4]): 2.29 µM (active) | EC50 [5]: 16.9 µM (active) | IC50 (SUMO-activating enzyme [6]): 15 µM (active) | EC50 (Streptococcus): 6.03 µM (active) | IC50 (Nonstructural protein 1): 42.3 µM (active) | IC50 (Albumin): > 94 µM (inactive)

C=CCNC(=S)Nc1sc2c(c1C(=O)OCC)CCN(C(=O)OCC)C2
IC50 (Bcl-2-related protein A1): > 20 µM (inactive) | IC50 [7]: 12.4 µM (active) | IC50 [8]: > 20 µM (inactive)

O=C(CSc1ccc(Cl)cc1)NC1CCCC1
AC50 [1]: 14.2 µM (active)

C#CCOCCOCCOCCNc1nc(N2CCN(C(=O)[C@H](CCCCN)n3cc([C@@H](N)[C@H](C)CC)nn3)CC2)nc(N2CCN(C(=O)[C@H](CCCCN)n3cc([C@@H](N)CC(N)=O)nn3)CC2)n1
IC50 (Bcl-2-related protein A1): > 20 µM (inactive) | IC50 [7]: 10.3 µM (active) | IC50 [8]: 16.6 µM (active)

CC1Cc2ccccc2N1C(=O)CSCC(=O)O (stereo not drawn)
AC50 (Cytochrome P450 2C19): 11.2 µM (inconclusive) | AC50 (Cytochrome P450 1A2): 20 µM (inconclusive) | AC50 (Cytochrome P450 2D6): inconclusive
